In PubChem BioAssay (NCI):
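Assay format: 96-well plates, 48-hour exposure. Abbreviation: GI50, concentration required for 50% inhibition of growth. The concentration for full growth arrest is given as TGI.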

Experiments:
Test in all cases: NCI tumour cell line growth inhibition, 48 h
[1] = tested on: MCF7 breast
[2] = tested on: MALME-3M melanoma
[3] = tested on: RXF 393 renal
[4] = tested on: OVCAR-4 ovarian
[5] = tested on: IGROV1 ovarian
[6] = tested on: NCI/ADR-RES ovarian
[7] = tested on: HL-60(TB) leukemia
[8] = tested on: COLO 205 colon
[9] = tested on: HCT-116 colon
[10] = tested on: SK-MEL-2 melanoma

## Cc1ccc2nc(CC(=O)c3ccc4ccccc4c3)c(=O)[nH]c2c1
[1]
  TGI: > 100 µM
[2]
  TGI: > 100 µM
[3]
  TGI: > 100 µM
[4]
  TGI: > 100 µM
[5]
  TGI: > 100 µM
[6]
  TGI: > 100 µM
[7]
  TGI: > 100 µM
[8]
  TGI: > 100 µM
[9]
  TGI: > 100 µM
[10]
  TGI: > 100 µM

## O=C(NCc1cccs1)OC1CC2CCC1C2 (configuration not stated)
[1]
  TGI: > 100 µM
[2]
  TGI: > 100 µM
[3]
  TGI: > 100 µM
[4]
  TGI: > 100 µM
[5]
  TGI: > 100 µM
[6]
  TGI: > 100 µM
[7]
  TGI: > 100 µM
[8]
  TGI: > 100 µM
[9]
  TGI: > 100 µM
[10]
  TGI: > 100 µM

## Cc1cccc2c1NC(=O)C2(c1ccc(O)cc1)c1ccc(O)cc1
[1]
  GI50: 0.0219 µM
  TGI: > 59.6 µM
[2]
  GI50: 17.8 µM
  TGI: 55.5 µM
[3]
  GI50: < 0.0181 µM
  TGI: 0.709 µM
[4]
  GI50: < 0.01 µM
  TGI: < 0.0174 µM
[5]
  GI50: 0.0634 µM
  TGI: 47.6 µM
[6]
  GI50: 0.133 µM
  TGI: > 100 µM
[7]
  GI50: 7.64 µM
  TGI: 39.6 µM
[8]
  GI50: 0.0135 µM
  TGI: 11.1 µM
[9]
  GI50: 11.3 µM
  TGI: 25.5 µM
[10]
  GI50: 15.7 µM
  TGI: 37.8 µM

## O=C(c1ccncc1)N1CCN(C2=NS(=O)(=O)c3ccccc3N2c2ccccc2)CC1
[1]
  GI50: 7.39 µM
  TGI: > 100 µM
[2]
  GI50: 23.6 µM
  TGI: 51.8 µM
[3]
  GI50: 18.5 µM
  TGI: 40.5 µM
[4]
  GI50: 30.6 µM
  TGI: > 100 µM
[5]
  GI50: 25.1 µM
  TGI: > 100 µM
[6]
  GI50: > 100 µM
  TGI: > 100 µM
[7]
  GI50: 17.1 µM
  TGI: > 100 µM
[8]
  GI50: 30.3 µM
  TGI: > 100 µM
[9]
  GI50: 14.5 µM
  TGI: 33.3 µM
[10]
  GI50: 28 µM
  TGI: 65.7 µM

## CC(=O)Nc1ccc(S(=O)(=O)c2ccc(NC(C)=O)cc2)cc1
[1]
  GI50: > 100 µM
  TGI: > 100 µM
[2]
  GI50: 34.5 µM
  TGI: > 100 µM
[3]
  GI50: > 100 µM
  TGI: > 100 µM
[4]
  GI50: > 100 µM
  TGI: > 100 µM
[5]
  GI50: > 100 µM
  TGI: > 100 µM
[6]
  GI50: > 100 µM
  TGI: > 100 µM
[7]
  GI50: > 100 µM
  TGI: > 100 µM
[8]
  GI50: > 100 µM
  TGI: > 100 µM
[9]
  GI50: > 100 µM
  TGI: > 100 µM
[10]
  GI50: > 100 µM
  TGI: > 100 µM

## C/C=C(\C)C(=O)OC1C2C(C)C(=O)OC2C(O)C(C)C2C=CC(=O)C21C (configuration not stated)
[1]
  TGI: 21.6 µM
[2]
  TGI: 27 µM
[3]
  TGI: 24.5 µM
[4]
  TGI: > 74.7 µM
[5]
  TGI: 25.5 µM
[6]
  TGI: 49.9 µM
[7]
  TGI: 18.4 µM
[8]
  TGI: 26.3 µM
[9]
  TGI: 22.6 µM
[10]
  TGI: 34.4 µM

## Nc1ncnc2c1c(C(=O)NO)cn2C1OC(CO)C(O)C1O (configuration not stated)
[1]
  GI50: 0.213 µM
  TGI: 1.69 µM
[2]
  GI50: 0.388 µM
  TGI: 3.11 µM
[3]
  GI50: 0.331 µM
[4]
  GI50: 0.213 µM
  TGI: 5.61 µM
[5]
  GI50: 0.279 µM
[6]
  GI50: 0.137 µM
[7]
  GI50: 0.158 µM
  TGI: 0.457 µM
[8]
  GI50: 0.279 µM
  TGI: 1.55 µM
[9]
  GI50: 0.175 µM
  TGI: > 23.8 µM
[10]
  GI50: 0.333 µM
  TGI: 1.92 µM

## O=C(O)CP(=O)(c1ccccc1)c1ccccc1.O=C(O)CP(=O)(c1ccccc1)c1ccccc1.[Cd]
[1]
  GI50: 27.2 µM
  TGI: > 100 µM
[2]
  GI50: 0.536 µM
  TGI: 3.76 µM
[3]
  GI50: 68.8 µM
  TGI: > 100 µM
[4]
  GI50: 13.3 µM
  TGI: 34.1 µM
[5]
  GI50: 16.6 µM
  TGI: 37.1 µM
[6]
  GI50: 21.9 µM
  TGI: 52.2 µM
[7]
  GI50: 15.9 µM
  TGI: 60.7 µM
[8]
  GI50: 31.8 µM
  TGI: > 100 µM
[9]
  GI50: 20 µM
  TGI: 47.3 µM
[10]
  GI50: 19.6 µM
  TGI: 75.3 µM

## Cc1csc(-c2ccc3c(c2)COC3(CCCN(C)C)c2ccc(F)cc2)c1 (configuration not stated)
[1]
  GI50: 1.7 µM
  TGI: 3.38 µM
[2]
  GI50: 1.74 µM
  TGI: 3.34 µM
[3]
  GI50: 1.63 µM
  TGI: 3.04 µM
[4]
  GI50: 1.67 µM
  TGI: 3.11 µM
[5]
  GI50: 1.67 µM
  TGI: 3.32 µM
[6]
  GI50: 1.81 µM
  TGI: 3.44 µM
[7]
  GI50: 1.97 µM
  TGI: 4.27 µM
[8]
  GI50: 2.59 µM
  TGI: 5.64 µM
[9]
  GI50: 1.86 µM
  TGI: 3.54 µM
[10]
  GI50: 1.96 µM
  TGI: 3.95 µM

## C(=C\c1nc2ccccc2s1)/c1ccc(N2CCOCC2)s1
[1]
  GI50: 75 µM
  TGI: > 100 µM
[2]
  GI50: 72 µM
  TGI: > 100 µM
[3]
  GI50: 31.3 µM
  TGI: > 100 µM
[4]
  GI50: 33.7 µM
  TGI: > 100 µM
[5]
  GI50: 58.3 µM
  TGI: > 100 µM
[6]
  GI50: 37.1 µM
  TGI: > 100 µM
[7]
  GI50: > 100 µM
  TGI: > 100 µM
[8]
  GI50: > 100 µM
  TGI: > 100 µM
[9]
  GI50: 59.9 µM
  TGI: > 100 µM
[10]
  GI50: 63.8 µM
  TGI: > 100 µM

## CC(=O)OC1CC(C)c2c(Cl)ncnc21 (configuration not stated)
[1]
  GI50: > 100 µM
  TGI: > 100 µM
[2]
  GI50: > 100 µM
  TGI: > 100 µM
[3]
  GI50: > 100 µM
  TGI: > 100 µM
[4]
  GI50: > 100 µM
  TGI: > 100 µM
[5]
  GI50: > 100 µM
  TGI: > 100 µM
[6]
  GI50: > 100 µM
  TGI: > 100 µM
[7]
  GI50: > 100 µM
  TGI: > 100 µM
[8]
  GI50: > 100 µM
  TGI: > 100 µM
[9]
  GI50: > 100 µM
  TGI: > 100 µM
[10]
  GI50: > 100 µM
  TGI: > 100 µM

## COc1ccc(CCN2COc3ccc4ccc(=O)oc4c3C2)cc1OC
[1]
  TGI: > 100 µM
[2]
  TGI: > 100 µM
[3]
  TGI: > 100 µM
[4]
  TGI: > 100 µM
[5]
  TGI: > 100 µM
[6]
  TGI: > 100 µM
[7]
  TGI: 41.7 µM
[8]
  TGI: > 100 µM
[9]
  TGI: > 100 µM
[10]
  TGI: > 100 µM

## COc1ccc(OC)c(-c2cc(C(=O)O)c3cc4ccccc4cc3n2)c1
[1]
  TGI: > 100 µM
[2]
  TGI: > 100 µM
[3]
  TGI: > 100 µM
[4]
  TGI: > 100 µM
[5]
  TGI: > 100 µM
[6]
  TGI: > 100 µM
[7]
  TGI: > 100 µM
[8]
  TGI: > 100 µM
[9]
  TGI: > 100 µM
[10]
  TGI: > 100 µM
